For one series, the system named is T lymphocytes. Description: T-cell proliferation assay (spleen lymphocytes + LLC cells, WST-1). The settings on record: 50 μM IDO inhibitor, 72 hours. It counts as cell-based, mice. As to the method:
Isolation of Spleen Lymphocytes (Performed in Accordance with the Lymphocyte Separation Medium Instructions):
1. Two mice were sacrificed by cervical dislocation and spleens were removed on a sterile table and placed into a 6 cm plate containing an RP1640 culture medium for later use.
2. A 100 μm mesh was placed in a 50 mL centrifuge tube and each spleen was cut into smaller pieces using scissors, milled on top of the sieve and a small amount of RP1640 was added for preservation purposes.
3. A lymphocyte separation medium equivalent to twice the volume of the resulting slurry was then added.
4. Centrifugation was performed at 800 g for 20 minutes, after which three distinct layers were visible, with the middle layer showing a slight yellowish tint.
5. Cells in the middle layer were removed and an RP1640 culture medium was added to perform a reverse wash. Cells were then centrifuged at 250 g for 10 minutes at room temperature, and the cells were collected.
6. The culture medium was aspirated off and cells were resuspended in the RP1640 medium, after which a cell count was performed.
LLC (Lewis Lung Carcinoma) Cell Treatment:
1. A medium (high glucose DMEM, 10% FBS) was aspirated off and washing was performed 1-2 times using PBS;
3. The trypsin was aspirated off and a culture medium was added, after which cells were pipetted off and transferred to a 1.5 mL centrifuge tube;
4. Centrifugation followed by aspiration of the supernatant was performed, and cells were resuspended in 1 mL of the DMEM culture medium;
5. Mitomycin C (final concentration: 25 μg/mL) was added, the mixture was pipetted up and down until homogeneous, and the mixture was placed in a 37° C. bath for 30 minutes;
6. Washing was performed 3 times with RP1640, the cells were counted and the sample was set aside.
1. Treated LLC cells (2×10^4 cells/well; stimulator cells) and spleen lymphocytes (10^5 cells/well; reaction cells) were added to a 96-well plate, after which RP1640 (10% FBS was added to bring the volume to 200 μL;
3. A WST-1 reagent kit was used to measure T-cell proliferation, and absorbance values at a wavelength of 450 nm were measured using a plate reader;
4. […] Experimental Results

The subject of series [1] is Lewis lung carcinoma.
Series [2] relates to Lewis lung carcinoma. Briefly: LLC Lewis tumor model, prophylactic administration. The settings on record: for tumor inhibition rate, tumor volume basis / tumor inhibition rate, tumor weight basis: prophylactic administration; for tumor formation, days after the start of administration: prophylactic administration via gavage, test compound: high dosage group.
Series [3] has as its target T1, IDO (Homo sapiens, UniProt P14902). Briefly: Measurement of median effective inhibition concentration IC50 (IDO enzyme). It counts as biochemical. The arrangement: made in house; host or cells: Escherichia coli. The procedure: (§1) The IDO inhibitory activity with respect to each compound was detected using the methods described in the literature. 50 mM potassium phosphate buffer (pH 6.5), 40 mM vitamin C, 400 μg/ml catalase, 20 μM methylene blue and IDO enzyme were mixed together in a 96-well plate. The substrate L-tryptophan and the sample to be tested were then added to the aforementioned mixture. The reaction was carried out for 60 minutes at 37° C., after which the reaction was terminated by adding 30% (w/v) trichloroacetic acid. The 96-well plate was heated to 65° C. for 15 minutes to complete the conversion from formylkynurenine to kynurenine, and centrifugation was performed with 6000 g for 5 minutes. 100 μl of supernatant was removed from each well and transferred to a new 96-well plate, after which an acetic acid solution of 2% (w/v) p-(dimethylamino)benzaldehyde was added, and the yellow color produced as a result of the resulting reaction with kynurenine was observable at 490 nm in a microplate reader; the experimental results are shown in Table 1.
50 mM potassium phosphate buffer (pH 6.5), 40 mM vitamin C, 400 μg/ml catalase, 20 μM methylene blue, […] of the substrate L-tryptophan and inhibitor were mixed together.

The target in series [4] is T1, IDO. Briefly: Measurement of IC50 (cells): HEK 293 cells transfected with pcDNA3.1-hIDO plasmid. Format: cell-based. More on the design: expressed in transfected cells; host or cells: HEK 293. The conditions noted are these: as headed in Table 1, column 3; read-out: IC50 (μM) (Cell). The procedure: The liposome Lipofectamin 2000 was used to transfect HEK 293 cells with the pcDNA3.1-hIDO plasmid. When measuring the inhibition activity at the cellular level, the HEK293 cell culture medium corresponded to high glucose DMEM, containing 50 U/mL penicillin, 50 U/mL streptomycin and 10% FBS, and culturing was performed at 37° C. under 5% CO2.

Series [5] has as its target T1, IDO. Briefly: Determining inhibitor type and Ki value measurement (Dixon plot). Format: biochemical. More on the design: made in house; host or cells: Escherichia coli. The procedure:
as §1

The mark [6] stands for this setting: 200 mg/kg via gavage, two weeks, post-inoculation.
The mark [7] stands for this setting: high dosage group 150 mg/kg via gavage.
The mark [8] stands for this setting: low dosage group 75 mg/kg via gavage.

Data on 9 molecules can be found in US10059712B2, “N-benzyl tryptanthrin derivative, and preparation method and application thereof” (priority 2013, dated 2018).

pIC50: −log10 of the molar value. Where two headings read alike, the source gives them in different places.

T1 sequence (P14902 whole entry): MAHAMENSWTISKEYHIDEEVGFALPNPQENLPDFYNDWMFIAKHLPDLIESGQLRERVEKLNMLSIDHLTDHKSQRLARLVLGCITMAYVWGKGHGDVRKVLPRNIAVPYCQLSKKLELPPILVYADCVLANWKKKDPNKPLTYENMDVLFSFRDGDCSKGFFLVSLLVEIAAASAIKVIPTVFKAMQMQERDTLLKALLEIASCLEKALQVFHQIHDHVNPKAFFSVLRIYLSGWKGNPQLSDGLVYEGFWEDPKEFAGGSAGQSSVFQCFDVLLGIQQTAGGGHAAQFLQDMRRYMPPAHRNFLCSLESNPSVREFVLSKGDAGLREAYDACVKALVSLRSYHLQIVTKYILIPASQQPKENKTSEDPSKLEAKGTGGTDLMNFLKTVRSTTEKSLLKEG

As for `O=C1c2cc(F)ccc2-n2c1nc1ccc(CN3CCNCC3)cc1c2=O` [Embodiment Example 3, 8-fluoro-2-(piperazin-1-ylmethyl)indolo[2,1-b]quinazoline-6,12-dione], in the series with T lymphocytes, the “T-Cell Proliferation Rate” value was 40.64%.
For the molecule `CN1CCN(Cc2ccc3nc4n(c(=O)c3c2)-c2ccc(F)cc2C4=O)CC1` [Embodiment Example 4], the “T-Cell Proliferation Rate” value with T lymphocytes was found to be 41.24%. Besides, the “tumor inhibition rate, tumor volume basis” value in the series with Lewis lung carcinoma [1] (setting [6]) turned out to be 23.38%; with Lewis lung carcinoma [2] (setting [7]), 62.15%; in the series with Lewis lung carcinoma [2] (setting [8]) it was 46.62%. Moreover, in the series on Lewis lung carcinoma [2] (setting [7]), the “tumor inhibition rate, tumor weight basis” value is listed as 57.8%. In addition, the “tumor formation, days after the start of administration” value in the series on Lewis lung carcinoma [2] is listed as above 20 days.
As for `CC(C)(C)OC(=O)N1CCN(Cc2ccc3nc4n(c(=O)c3c2)-c2ccc(F)cc2C4=O)CC1` [Embodiment Example 2, 4-((8-fluoro-6,12-dioxo-6,12-dihydroxy-indolo[2,1-b]quinolin-2-yl)methyl)piperazine-1-carboxylic acid tert-butyl ester], the “T-Cell Proliferation Rate” value with T lymphocytes turned out to be 38.48%.
On to `O=C1c2cc(F)ccc2-n2c1nc1ccc(CN3CCOCC3)cc1c2=O` [Embodiment Example 5, 8-fluoro-2-((morpholino-1-yl)methyl)indolo[2,1-b]quinazoline-6,12-dione], for which, in the series on T lymphocytes, the “T-Cell Proliferation Rate” value is recorded as 50.27%.
Take `CC(=O)O[C@H]1C(=O)[C@@]2(C)[C@H]([C@H](OC(=O)c3ccccc3)[C@]3(O)C[C@H](OC(=O)[C@H](O)[C@@H](NC(=O)c4ccccc4)c4ccccc4)C(C)=C1C3(C)C)[C@]1(OC(C)=O)CO[C@@H]1C[C@@H]2O` [paclitaxel]: in the series on Lewis lung carcinoma [1] (100 mg/kg intravenous injection once per week, post-inoculation), the “tumor inhibition rate, tumor volume basis” value is 51.45%. Further, the “toxic side effects observed in mice” value in the series on Lewis lung carcinoma [1] (mouse, in vivo) was “losing weight, losing their fur and showing less movement in general”.
For `CN(C)Cc1ccc2nc3n(c(=O)c2c1)-c1ccc(F)cc1C3=O` [Embodiment Example 1, 2-((dimethylamino)methyl)-8-fluoro-indolo[2,1-b]quinazoline-6,12-dione], in the series on T lymphocytes, the “T-Cell Proliferation Rate” value was 4.88%.
Turning to `Cn1cc(C[C@H](N)C(=O)O)c2ccccc21` [1-MT, 1-methyl-tryptophan, reference compound], in the series with Lewis lung carcinoma [1] (setting [6]), the “in vivo Lewis lung carcinoma tumor growth compared to the control group” value is on record as “significant inhibition” and the “tumor inhibition rate, tumor volume basis” value worked out at 15.68%. In the series on Lewis lung carcinoma [2] (setting [7]), the “tumor inhibition rate, tumor volume basis” value is reported as 32.35% and the “tumor inhibition rate, tumor weight basis” value is recorded as 28.2%. Further, in the series on Lewis lung carcinoma [2] (setting [8]), the “tumor inhibition rate, tumor volume basis” value is reported as 27.00%. The “tumor formation, days after the start of administration” value with Lewis lung carcinoma [2] was 13 days.
As for `Cc1ccc2nc3n(c(=O)c2c1)-c1ccccc1C3=O` [Comparative Example, 2-methyl-indole[2,1-b]quinazoline-6,12-dione, reference compound], the pIC50 at IDO [3] (method of Embodiment Example 9-11, read-out: IDO inhibitory activity in vitro IC50) is 3.00.
For `CN1CCN(Cc2ccc3nc4n(c(=O)c3c2)-c2ccccc2C4=O)CC1` [Embodiment Example 6, 2-((4-methyl-piperazin-1-yl)methyl)indolo[2,1-b]quinazoline-6,12-dione], the IC50 at IDO [4] worked out at 2.52 µM. Also, the “T-Cell Proliferation Rate” value in the series with T lymphocytes was 39.40%. In addition, at IDO [3] (as headed in Table 1, column 4, read-out: IC50), the pIC50 was 6.01. Besides, at IDO [5] (Dixon plot (1/v-[I])), the “Inhibition Type” value was “Anticompetitive”. Moreover, the Ki on IDO [5] (plot of S/v-[I], read-out: Ki (μM) (in vitro)) turned out to be 5.97 µM.

Usually pIC50 stands for the negative decadic logarithm of the IC50, by convention in mol/L. What is called IC50 is the concentration needed to halve the response being measured. Usually Ki stands for the dissociation constant of the complex between target and ligand, obtained from inhibition or displacement.
